Marks after values point to notes of the source that are not given here.
What was measured:
Src = biological target: T1, Src (Homo sapiens, UniProt P12931); test: Chemiluminescent kinase assay; assay type: biochemical; conditions: ATP at Km
T1 construct: His (N); purchased Upstate Biotech

EGFR = biological target: T2, EGFR (Homo sapiens, UniProt P00533); test: Mechanism of action study / Ki determination; assay type: biochemical
T2 construct: residues H672-A1210 of human EGFR, Proqinase; purchased Proqinase
Procedure: Enzymatic activity was measured by standard methods after dilution of the enzyme-inhibitor complex.

p-Y-VEGFR2/KDR = biological target: T3, p-Y-VEGFR2/KDR (Mus musculus, UniProt P35918); test: In vivo receptor phosphorylation, murine lung; conditions: read-out: Estimated IC50 (plasma concentration)
T3 construct: from tissue; host or cells: murine lung

H1975 xenografts = test: Immunohistochemical analysis of H1975 xenografts (TUNEL, CD31, Ki67); assay type: in vivo, mouse; conditions: 14-day dosing
Procedure: (§1) For immunohistochemical analysis of H1975, MDA-MB-231 and other xenografts, tumors were excised after euthanasia and fixed in zinc fixative (BD Biosciences) for 48 h before being processed into paraffin blocks. Serial sections at 5 μm were obtained from the area of largest possible surface for each tumor and stained using standard methods. The following antibodies were used: Ki67 (SP6; Labvision), CD31 (MECA.32; BD Biosciences), pERK^Thr202/Tyr204 (phospho-p44/42 mitogen-activated protein kinase; Cell Signaling Technology), pAKT^Ser473 (Cell Signaling Technology), and pEGFR^Tyr1068 (Cell Signaling Technology). For immunofluorescent staining, sections were then incubated with Alexa 594-conjugated goat anti-rabbit secondary antibody (Invitrogen) and mounted in Fluorescent Mounting Medium (DAKO) containing 4′,6-diamidino-2-phenylindole (Molecular Probes) as a nuclear counterstain. Fluorescent staining was visualized using a Zeiss Axiolmager and digitally captured using a Zeiss high-resolution camera coupled to AxioVision image analysis software. Two to three nonoverlapping representative fields were captured at ×200 or ×400 magnification depending on histologic readout and quantified using the integrated morphometric analysis functions in Metamorph software (Universal Imaging Corp.). Apoptotic cells were detected using terminal deoxynucleotidyl transferase-mediated dUTP nick end labeling in situ cell death detection kit according to the manufacturer's instructions (Roche Diagnostics GmbH).
(§2) CD31-positive tumor vessels, Ki67-positive proliferating cells, and pERK staining in each tumor section were identified and quantified using the integrated morphometric analysis functions in the ACIS automatic cellular imaging system (Clarient, Inc.) and reviewed by a blinded observer. Number of CD31-positive vessels were identified across 5 to 10 randomly chosen fields of equal size at ×100 magnification in viable tumor tissue and calculated as number of vessels per square millimeter for each tumor, averaged for each treatment group, and compared with vehicle-treated controls. Percentage Ki67-positive cells were calculated as the ratio between Ki67-positive cells divided by the total number of cells identified across 5 to 10 randomly chosen fields of equal size in viable tumor tissue. The results for each tumor and treatment group were averaged and compared with vehicle-treated controls. The level of pERK staining was determined as described above and calculated as the ratio of antibody staining divided by the total number of cells identified, averaged for each treatment group, and compared with vehicle-treated controls.
Results are presented as mean±SD or SE as indicated for each graph or table. For IC50 comparison in the A431 cell viability experiment, two sample Student's t tests were applied to determine P values for each IC50 pair assuming that the random fluctuations of replicates around the dose-response curve are distributed [log]normally with the individual replicates used as the ‘sample size’ for the t test (nine point dose response done in triplicate). For statistical analysis of immunohistochemical results from in vivo studies, two-tailed Student's t test analysis and Bonferroni correction were done to identify significant differences compared with vehicle control group (multiple use of a single vehicle control group) with a cumulative minimal requirement of P<0.05.

[1] = test system: subjects with non-small-cell lung cancer; test: Clinical Study XL-647-201 (Phase 2, NSCLC front-line); assay type: in vivo, human; conditions: Intermittent 5&9 schedule
Source text: Study XL-647-201: Subjects with non-small-cell lung cancer (NSCLC) (n=52) of adenomacarcinoma histology, Stage IIIB, with malignant pleural effusion, or Stage IV previously untreated for metastatic disease were enrolled. Subjects were selected for clinical characteristics predictive of response to EGFR inhibitors (Asian, female, and/or minimal and remote smoking history).

Leukotriene B4, LTB4 = biological target: T4, Leukotriene B4, LTB4 (Homo sapiens, UniProt Q15722); test: NovaScreen assay; assay type: binding; conditions: read-out: Inhibition, 10 μM XL-647
T4 construct: NovaScreen

A431 tumors = test: Immunohistochemical analysis of A431 tumors; assay type: in vivo, mouse; conditions: 14-day dosing
Procedure: as §1, §2

[2] = human, in vivo
Bradykinin, BK2 = biological target: T5, Bradykinin, BK2 (Homo sapiens, UniProt P30411); test: NovaScreen assay; assay type: binding; conditions: read-out: Inhibition, 10 μM XL-647
T5 construct: NovaScreen

[3] = Clinical Study XL-647-001 (Phase 1, Intermittent 5&9 schedule); conditions: human, in vivo
Procedure: (§3) Enrollment is complete, and all subjects have been off study as of 31 May 2007. Subjects initially received a powder in bottle (PIB) formulation using mass-based dosing. […] The final cohort received a fixed dose of 350 mg in a tablet formulation.

[4] = test system: subjects with advanced solid tumors; test: as above
Procedure: as §3

Endothelin, ET-A (Human) = biological target: T6, Endothelin, ET-A (Human) (Homo sapiens, UniProt P25101); test: NovaScreen assay; assay type: binding; conditions: read-out: Inhibition, 10 μM XL-647
T6 construct: NovaScreen

[5] = biological target: T7, Platelet Activating Factor, PAF (Homo sapiens, UniProt P25105); test: NovaScreen assay; assay type: binding; conditions: read-out: Inhibition, 10 μM XL-647
T7 construct: NovaScreen

[6] = test system: Vasoactive Intestinal Peptide, Non-selective; test: NovaScreen assay; assay type: binding

T2 sequence (P00533 672-1210): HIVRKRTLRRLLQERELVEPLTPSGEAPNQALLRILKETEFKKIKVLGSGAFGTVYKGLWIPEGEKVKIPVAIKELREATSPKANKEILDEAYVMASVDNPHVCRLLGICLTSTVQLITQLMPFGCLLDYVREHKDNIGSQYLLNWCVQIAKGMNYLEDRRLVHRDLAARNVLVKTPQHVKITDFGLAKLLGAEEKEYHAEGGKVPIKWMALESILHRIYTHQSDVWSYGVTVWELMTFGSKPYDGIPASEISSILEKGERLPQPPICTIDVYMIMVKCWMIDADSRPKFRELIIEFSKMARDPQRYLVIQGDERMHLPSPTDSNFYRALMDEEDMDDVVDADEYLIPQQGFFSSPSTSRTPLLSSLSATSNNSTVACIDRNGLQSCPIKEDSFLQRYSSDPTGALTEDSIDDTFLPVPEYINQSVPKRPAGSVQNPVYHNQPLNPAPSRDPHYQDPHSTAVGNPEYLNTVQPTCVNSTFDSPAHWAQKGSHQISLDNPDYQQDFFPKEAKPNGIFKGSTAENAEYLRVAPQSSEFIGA
T6 sequence (P25101 21-427): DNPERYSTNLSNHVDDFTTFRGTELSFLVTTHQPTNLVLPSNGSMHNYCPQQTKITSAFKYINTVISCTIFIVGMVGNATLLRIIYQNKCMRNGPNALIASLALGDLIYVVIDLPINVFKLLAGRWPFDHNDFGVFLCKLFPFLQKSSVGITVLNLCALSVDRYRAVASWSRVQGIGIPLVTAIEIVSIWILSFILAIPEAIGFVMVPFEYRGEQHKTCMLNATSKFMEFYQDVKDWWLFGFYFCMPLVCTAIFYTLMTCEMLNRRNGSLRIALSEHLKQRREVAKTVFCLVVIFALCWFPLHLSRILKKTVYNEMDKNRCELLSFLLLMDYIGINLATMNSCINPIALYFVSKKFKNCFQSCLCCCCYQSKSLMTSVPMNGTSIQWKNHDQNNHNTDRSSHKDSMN
T5 sequence (P30411 whole entry): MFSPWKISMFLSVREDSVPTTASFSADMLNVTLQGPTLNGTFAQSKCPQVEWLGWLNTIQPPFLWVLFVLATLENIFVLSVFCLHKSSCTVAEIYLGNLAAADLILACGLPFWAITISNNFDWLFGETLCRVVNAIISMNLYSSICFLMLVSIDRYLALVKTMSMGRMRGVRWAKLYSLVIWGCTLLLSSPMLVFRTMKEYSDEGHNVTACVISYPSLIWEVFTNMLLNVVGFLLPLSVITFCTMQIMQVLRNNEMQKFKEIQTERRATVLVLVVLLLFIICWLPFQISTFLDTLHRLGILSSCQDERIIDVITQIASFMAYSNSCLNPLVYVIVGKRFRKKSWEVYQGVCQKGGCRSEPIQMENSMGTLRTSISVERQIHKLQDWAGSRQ
T4 sequence (Q15722 whole entry): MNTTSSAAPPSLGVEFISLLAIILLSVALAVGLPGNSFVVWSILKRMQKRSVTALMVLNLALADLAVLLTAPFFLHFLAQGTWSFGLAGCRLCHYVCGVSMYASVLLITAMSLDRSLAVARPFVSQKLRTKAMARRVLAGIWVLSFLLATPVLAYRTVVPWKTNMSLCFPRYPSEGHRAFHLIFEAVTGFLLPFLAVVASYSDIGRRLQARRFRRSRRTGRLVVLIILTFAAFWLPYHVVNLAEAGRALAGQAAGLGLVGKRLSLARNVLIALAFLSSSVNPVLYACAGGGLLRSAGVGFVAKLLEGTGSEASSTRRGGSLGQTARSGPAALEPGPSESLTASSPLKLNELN
T7 sequence (P25105 whole entry): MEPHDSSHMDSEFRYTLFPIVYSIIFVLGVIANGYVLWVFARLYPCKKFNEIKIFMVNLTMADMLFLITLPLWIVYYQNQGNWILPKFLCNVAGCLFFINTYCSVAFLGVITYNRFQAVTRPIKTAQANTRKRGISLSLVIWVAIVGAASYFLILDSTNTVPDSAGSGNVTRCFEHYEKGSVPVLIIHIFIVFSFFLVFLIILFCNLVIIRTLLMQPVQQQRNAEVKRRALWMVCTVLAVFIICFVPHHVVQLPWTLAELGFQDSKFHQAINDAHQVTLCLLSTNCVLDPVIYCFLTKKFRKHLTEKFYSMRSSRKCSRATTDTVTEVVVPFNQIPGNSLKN
T3 sequence (P35918 20-1345): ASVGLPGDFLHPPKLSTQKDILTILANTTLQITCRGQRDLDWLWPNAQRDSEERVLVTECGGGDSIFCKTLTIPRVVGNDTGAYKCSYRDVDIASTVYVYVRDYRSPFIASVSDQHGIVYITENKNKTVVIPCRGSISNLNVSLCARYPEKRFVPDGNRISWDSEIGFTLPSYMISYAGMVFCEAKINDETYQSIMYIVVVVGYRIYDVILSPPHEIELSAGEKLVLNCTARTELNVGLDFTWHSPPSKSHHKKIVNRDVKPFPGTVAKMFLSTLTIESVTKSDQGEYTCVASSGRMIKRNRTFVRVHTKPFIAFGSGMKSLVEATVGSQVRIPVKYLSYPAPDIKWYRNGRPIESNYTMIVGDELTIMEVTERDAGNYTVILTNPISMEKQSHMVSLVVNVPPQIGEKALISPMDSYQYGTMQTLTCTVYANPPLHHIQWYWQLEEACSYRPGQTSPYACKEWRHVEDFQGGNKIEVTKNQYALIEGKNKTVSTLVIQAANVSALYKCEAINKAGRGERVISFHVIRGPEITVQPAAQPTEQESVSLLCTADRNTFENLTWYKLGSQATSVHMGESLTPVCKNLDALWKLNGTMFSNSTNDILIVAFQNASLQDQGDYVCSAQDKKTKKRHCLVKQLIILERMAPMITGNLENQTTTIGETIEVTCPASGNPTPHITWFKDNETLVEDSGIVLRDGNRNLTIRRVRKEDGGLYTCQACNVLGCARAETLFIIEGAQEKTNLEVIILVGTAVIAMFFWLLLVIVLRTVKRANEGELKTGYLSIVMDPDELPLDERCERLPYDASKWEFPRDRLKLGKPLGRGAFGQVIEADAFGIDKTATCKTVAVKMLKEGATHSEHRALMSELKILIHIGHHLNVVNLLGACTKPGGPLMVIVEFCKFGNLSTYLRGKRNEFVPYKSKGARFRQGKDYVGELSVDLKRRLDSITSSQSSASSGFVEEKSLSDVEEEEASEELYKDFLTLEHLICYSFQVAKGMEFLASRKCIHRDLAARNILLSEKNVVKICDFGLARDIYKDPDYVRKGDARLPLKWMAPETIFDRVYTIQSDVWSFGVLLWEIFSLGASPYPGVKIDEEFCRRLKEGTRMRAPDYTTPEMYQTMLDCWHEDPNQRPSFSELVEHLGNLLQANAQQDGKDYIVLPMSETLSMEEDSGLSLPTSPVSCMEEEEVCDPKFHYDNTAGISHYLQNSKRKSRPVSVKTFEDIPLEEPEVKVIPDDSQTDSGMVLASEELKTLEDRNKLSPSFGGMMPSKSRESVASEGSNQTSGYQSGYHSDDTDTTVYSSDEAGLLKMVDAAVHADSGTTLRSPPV
T1 sequence (P12931 whole entry): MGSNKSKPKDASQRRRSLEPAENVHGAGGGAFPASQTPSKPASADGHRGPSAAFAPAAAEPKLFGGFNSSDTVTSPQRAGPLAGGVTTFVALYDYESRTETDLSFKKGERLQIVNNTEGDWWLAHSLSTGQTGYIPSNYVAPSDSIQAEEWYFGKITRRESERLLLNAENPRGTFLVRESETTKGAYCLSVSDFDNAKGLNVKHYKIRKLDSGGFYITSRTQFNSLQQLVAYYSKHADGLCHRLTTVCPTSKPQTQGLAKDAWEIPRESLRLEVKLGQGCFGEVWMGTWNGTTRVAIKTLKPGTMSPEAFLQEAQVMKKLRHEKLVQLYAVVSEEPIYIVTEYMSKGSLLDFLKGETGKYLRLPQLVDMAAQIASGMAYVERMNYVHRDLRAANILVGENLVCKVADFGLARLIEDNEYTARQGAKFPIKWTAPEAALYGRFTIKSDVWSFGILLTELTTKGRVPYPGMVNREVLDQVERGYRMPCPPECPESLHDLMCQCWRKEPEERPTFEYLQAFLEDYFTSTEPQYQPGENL

With `COc1cc2c(Nc3ccc(Cl)c(Cl)c3F)ncnc2cc1OC[C@@H]1C[C@@H]2CN(C)C[C@@H]2C1` [XL-647, N-(3,4-dichloro-2-fluorophenyl)-7-({[(3aR,5r,6aS)-2-methyloctahydrocyclopenta[c]pyrrol-5-yl]methyl}oxy)-6-(methyloxy)quinazolin-4-amine] the IC50 (Src) was 10.3 ± 2 nM, the ATP-Competitive (EGFR) was “Yes” and the Ki (EGFR) was 0.05 nM. The Reversible (EGFR) was “Yes”, the IC50 (p-Y-VEGFR2/KDR) was 1200 nM and the “CD31 Analysis % Reduction” value (H1975 xenografts; 10 mg/kg) was 30.0^b %. For the same molecule, the “CD31 Analysis MVC” value (H1975 xenografts; 10 mg/kg) was 44, the “Ki67 Expression % Cells” value (H1975 xenografts; 10 mg/kg) was 27% and the “Ki67 Expression % Reduction” value (H1975 xenografts; 10 mg/kg) was 23.2^b %. For the same molecule, the “TUNEL % Cells” value (H1975 xenografts; 10 mg/kg) was 6%, the “CD31 Analysis % Reduction” value (H1975 xenografts; 30 mg/kg) was 46.1^a % and the “CD31 Analysis MVC” value (H1975 xenografts; 30 mg/kg) was 34. For the same molecule, the “Ki67 Expression % Cells” value (H1975 xenografts; 30 mg/kg) was 20%, the “Ki67 Expression % Reduction” value (H1975 xenografts; 30 mg/kg) was 41.9^a % and the “TUNEL % Cells” value (H1975 xenografts; 30 mg/kg) was 11%. The “CD31 Analysis % Reduction” value (H1975 xenografts; 100 mg/kg) was 69.6^a %, the “CD31 Analysis MVC” value (H1975 xenografts; 100 mg/kg) was 19 and the “Ki67 Expression % Cells” value (H1975 xenografts; 100 mg/kg) was 8.9%. The “Ki67 Expression % Reduction” value (H1975 xenografts; 100 mg/kg) was 74.6^a %, the “TUNEL % Cells” value (H1975 xenografts; 100 mg/kg) was 15% and the “clinical benefit rate (PR+SD)” value ([1]; 38 evaluable) was 71%. The “subjects with PR” value ([1]; of 38 evaluable) was 10 subjects, the “subjects with SD lasting 3 months or more” value ([1]; of 38 evaluable) was 17 subjects and the inhibition at 10 µM (Leukotriene B4, LTB4) was 32.2%. The “CD31 Analysis % Reduction” value (A431 tumors; 10 mg/kg) was 33.5%, the “CD31 Analysis MVC” value (A431 tumors; 10 mg/kg) was 18.6 and the “Ki67 Expression % Reduction” value (A431 tumors; 10 mg/kg) was 53.3%. The “Ki67 Expression % of Cells” value (A431 tumors; 10 mg/kg) was 17.6%, the “Necrosis % Increase” value (A431 tumors; 10 mg/kg) was 20.7% and the “CD31 Analysis % Reduction” value (A431 tumors; 30 mg/kg) was 43.2%. The “CD31 Analysis MVC” value (A431 tumors; 30 mg/kg) was 15.9, the “Ki67 Expression % Reduction” value (A431 tumors; 30 mg/kg) was 67.2% and the “Ki67 Expression % of Cells” value (A431 tumors; 30 mg/kg) was 12.3%. For the same molecule, the “Necrosis % Increase” value (A431 tumors; 30 mg/kg) was 26.5%, the “CD31 Analysis % Reduction” value (A431 tumors; 100 mg/kg) was 87.3% and the “CD31 Analysis MVC” value (A431 tumors; 100 mg/kg) was 3.6. The “Ki67 Expression % Reduction” value (A431 tumors; 100 mg/kg) was 82.6%, the “Ki67 Expression % of Cells” value (A431 tumors; 100 mg/kg) was 6.5% and the “Necrosis % Increase” value (A431 tumors; 100 mg/kg) was 61.7%. The “most common adverse events (frequency ≧10%)” value [2] was “diarrhea, rash, fatigue, nausea, dry skin, cough, dyspnoea, anorexia, electrocardiogram QT prolongation (machine-read), vomiting, constipation, dysgeusia, upper respiratory tract infection, abdominal pain, back pain, pyrexia, dizziness, and dry mouth”, the inhibition at 10 µM (Bradykinin, BK2) was 48.8% and the MTD [3] was 4.68 mg/kg. For the same molecule, the “MTD converted to a fixed dose” value ([4]; Intermittent 5&9 schedule) was 350 mg, the “subjects with unconfirmed partial response (PR)” value ([4]; NSCLC, Day 228) was “one” and the “other subjects with prolonged stable disease lasting greater than 3 months” value ([4]; intermittent schedule) was 14 subjects. The inhibition at 10 µM (Endothelin, ET-A (Human)) was -11.1%, the inhibition at 10 µM [5] was 11.7% and the “Inhibition, 10 μM XL-647” value [6] was 17.02%.

Reference: US9364479B2, “Use of a receptor-type kinase modulator for treating polycystic kidney disease” (SYMPHONY EVOLUTION, INC., priority 2010, dated 2016)
